Test results reported in ChEMBL document CHEMBL4507318, “Data for DCP probe BAY-985” (2021).

Experiments:
[1] = target: Protein kinase C iota type (Homo sapiens) (UniProt P41743)
[2] = target: Maternal embryonic leucine zipper kinase (Homo sapiens) (UniProt Q14680)
[3] = target: 5-hydroxytryptamine receptor 1E (Homo sapiens) (UniProt P28566); details: Compound concentration 10.0 uM
[4] = target: Serine/threonine-protein kinase PLK4 (Homo sapiens) (UniProt O00444)
[5] = target: Tyrosine-protein kinase Mer (Homo sapiens) (UniProt Q12866)
[6] = target: Serine/threonine-protein kinase PLK3 (Homo sapiens) (UniProt Q9H4B4)
[7] = target: Calcium/calmodulin-dependent protein kinase type II subunit delta (Homo sapiens) (UniProt Q13557)
[8] = target: Homeodomain-interacting protein kinase 1 (Homo sapiens) (UniProt Q86Z02)
[9] = target: Peripheral plasma membrane protein CASK (Homo sapiens) (UniProt O14936)
[10] = target: Ribosomal protein S6 kinase alpha-1 (Homo sapiens) (UniProt Q15418)
[11] = target: Tyrosine-protein kinase ABL2 (Homo sapiens) (UniProt P42684)
Tyrosine-protein kinase ABL2 (Homo sapiens), sequence (P42684 whole entry): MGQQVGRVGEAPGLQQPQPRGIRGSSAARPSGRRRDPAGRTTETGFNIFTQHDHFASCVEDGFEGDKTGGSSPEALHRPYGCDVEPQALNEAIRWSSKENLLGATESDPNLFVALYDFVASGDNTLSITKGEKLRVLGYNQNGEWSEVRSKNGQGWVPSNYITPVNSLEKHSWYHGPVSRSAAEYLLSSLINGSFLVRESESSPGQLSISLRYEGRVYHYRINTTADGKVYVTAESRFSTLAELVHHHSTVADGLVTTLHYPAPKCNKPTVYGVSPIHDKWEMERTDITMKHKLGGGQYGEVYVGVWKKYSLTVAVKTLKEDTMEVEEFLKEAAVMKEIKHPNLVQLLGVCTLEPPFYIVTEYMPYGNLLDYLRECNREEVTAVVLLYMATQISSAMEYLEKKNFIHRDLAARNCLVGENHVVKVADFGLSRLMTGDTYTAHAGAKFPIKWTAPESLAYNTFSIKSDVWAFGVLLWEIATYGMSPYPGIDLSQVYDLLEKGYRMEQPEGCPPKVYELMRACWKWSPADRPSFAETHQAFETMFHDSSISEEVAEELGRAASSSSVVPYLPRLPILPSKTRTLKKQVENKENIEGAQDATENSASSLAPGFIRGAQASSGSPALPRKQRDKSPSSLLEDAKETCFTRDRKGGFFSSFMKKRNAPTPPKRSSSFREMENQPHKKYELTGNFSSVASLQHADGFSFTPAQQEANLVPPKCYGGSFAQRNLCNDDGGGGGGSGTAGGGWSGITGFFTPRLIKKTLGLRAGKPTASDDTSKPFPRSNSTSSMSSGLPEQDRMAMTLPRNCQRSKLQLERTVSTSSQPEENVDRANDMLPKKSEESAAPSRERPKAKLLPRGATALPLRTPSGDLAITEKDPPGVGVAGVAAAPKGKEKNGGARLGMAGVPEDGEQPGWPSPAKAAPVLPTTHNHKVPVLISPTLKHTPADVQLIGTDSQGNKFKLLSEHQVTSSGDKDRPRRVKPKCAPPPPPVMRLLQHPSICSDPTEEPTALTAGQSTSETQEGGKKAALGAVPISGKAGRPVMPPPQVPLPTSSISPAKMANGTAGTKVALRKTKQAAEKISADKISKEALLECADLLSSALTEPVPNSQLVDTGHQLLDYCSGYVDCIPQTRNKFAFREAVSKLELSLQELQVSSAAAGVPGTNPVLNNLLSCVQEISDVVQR

[12] = target: Serine/threonine-protein kinase D3 (Homo sapiens) (UniProt O94806)
[13] = target: Phosphatidylinositol 4,5-bisphosphate 3-kinase catalytic subunit gamma isoform (Homo sapiens) (UniProt P48736)
[14] = target: 5-hydroxytryptamine receptor 2C (Homo sapiens) (UniProt P28335); details: Compound concentration 10.0 uM
[15] = target: Serine/threonine-protein kinase Chk2 (Homo sapiens) (UniProt O96017)
Serine/threonine-protein kinase Chk2 (Homo sapiens), sequence (O96017 whole entry): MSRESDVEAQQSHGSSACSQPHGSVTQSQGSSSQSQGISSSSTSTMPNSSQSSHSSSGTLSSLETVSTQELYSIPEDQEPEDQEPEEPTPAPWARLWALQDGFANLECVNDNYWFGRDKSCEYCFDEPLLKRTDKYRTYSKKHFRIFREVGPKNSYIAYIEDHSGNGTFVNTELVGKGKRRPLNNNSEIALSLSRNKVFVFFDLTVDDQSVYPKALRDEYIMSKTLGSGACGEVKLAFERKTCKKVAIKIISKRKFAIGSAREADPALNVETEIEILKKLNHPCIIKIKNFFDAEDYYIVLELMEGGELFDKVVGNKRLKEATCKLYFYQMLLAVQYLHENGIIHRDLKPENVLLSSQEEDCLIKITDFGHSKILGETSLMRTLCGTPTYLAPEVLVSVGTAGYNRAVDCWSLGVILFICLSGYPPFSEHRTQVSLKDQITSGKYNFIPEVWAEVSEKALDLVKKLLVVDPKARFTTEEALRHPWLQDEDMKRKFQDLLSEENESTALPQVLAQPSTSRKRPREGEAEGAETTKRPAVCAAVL

[16] = target: 1-phosphatidylinositol 3-phosphate 5-kinase (Homo sapiens) (UniProt Q9Y2I7)
[17] = target: Mitogen-activated protein kinase kinase kinase 6 (Homo sapiens) (UniProt O95382)
[18] = target: Insulin-like growth factor 1 receptor (Homo sapiens) (UniProt P08069)
Insulin-like growth factor 1 receptor (Homo sapiens), sequence (P08069 31-736 limits assumed): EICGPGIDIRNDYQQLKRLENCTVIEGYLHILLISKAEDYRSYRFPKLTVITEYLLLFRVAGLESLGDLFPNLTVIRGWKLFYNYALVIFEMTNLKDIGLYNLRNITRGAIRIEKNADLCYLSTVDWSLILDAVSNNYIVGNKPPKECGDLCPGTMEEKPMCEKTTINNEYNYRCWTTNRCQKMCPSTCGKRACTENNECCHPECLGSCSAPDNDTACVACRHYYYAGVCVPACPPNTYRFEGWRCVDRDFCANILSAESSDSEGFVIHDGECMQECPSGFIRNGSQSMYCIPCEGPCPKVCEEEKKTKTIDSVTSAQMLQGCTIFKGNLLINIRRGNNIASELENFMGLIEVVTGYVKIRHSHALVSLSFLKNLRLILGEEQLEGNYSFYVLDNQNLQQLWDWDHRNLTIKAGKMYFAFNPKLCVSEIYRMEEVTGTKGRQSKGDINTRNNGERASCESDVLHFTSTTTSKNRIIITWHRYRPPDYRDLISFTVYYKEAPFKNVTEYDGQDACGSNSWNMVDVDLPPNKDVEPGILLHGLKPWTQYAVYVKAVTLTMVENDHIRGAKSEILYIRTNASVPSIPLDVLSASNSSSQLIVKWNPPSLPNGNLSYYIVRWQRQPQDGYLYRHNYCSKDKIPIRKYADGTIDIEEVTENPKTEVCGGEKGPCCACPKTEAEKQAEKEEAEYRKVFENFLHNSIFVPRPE
Insulin-like growth factor 1 receptor (Homo sapiens), sequence (P08069 741-1367 limits assumed): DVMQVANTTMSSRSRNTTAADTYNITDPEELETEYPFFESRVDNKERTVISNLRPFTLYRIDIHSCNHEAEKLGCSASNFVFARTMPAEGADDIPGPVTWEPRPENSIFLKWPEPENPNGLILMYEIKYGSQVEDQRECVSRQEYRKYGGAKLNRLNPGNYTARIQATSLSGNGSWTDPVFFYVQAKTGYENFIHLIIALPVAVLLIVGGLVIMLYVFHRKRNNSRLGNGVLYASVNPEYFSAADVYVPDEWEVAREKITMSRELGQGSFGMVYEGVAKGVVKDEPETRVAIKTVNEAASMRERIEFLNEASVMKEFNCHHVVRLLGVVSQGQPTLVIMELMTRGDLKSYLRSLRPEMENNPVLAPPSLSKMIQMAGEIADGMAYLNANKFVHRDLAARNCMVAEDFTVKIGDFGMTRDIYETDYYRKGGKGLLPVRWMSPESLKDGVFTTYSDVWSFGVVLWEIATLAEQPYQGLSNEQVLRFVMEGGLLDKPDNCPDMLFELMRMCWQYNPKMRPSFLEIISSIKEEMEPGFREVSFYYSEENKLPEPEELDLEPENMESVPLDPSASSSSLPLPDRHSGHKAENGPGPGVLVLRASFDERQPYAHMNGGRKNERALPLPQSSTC

[19] = test system: Epidermal growth factor receptor (Homo sapiens), P00533 [G719S]
[20] = target: Cyclin-dependent kinase-like 2 (Homo sapiens) (UniProt Q92772)
[21] = target: Phosphorylase b kinase gamma catalytic chain, skeletal muscle/heart isoform (Homo sapiens) (UniProt Q16816)
[22] = test system: Epidermal growth factor receptor (Homo sapiens), P00533 [UNDEFINED MUTATION]
[23] = target: Tyrosine-protein kinase Lyn (Homo sapiens) (UniProt P07948)
[24] = target: Testis-specific serine/threonine-protein kinase 3 (Homo sapiens) (UniProt Q96PN8)
[25] = target: Casein kinase II subunit alpha' (Homo sapiens) (UniProt P19784)
[26] = target: Phosphatidylinositol 4,5-bisphosphate 3-kinase catalytic subunit beta isoform (Homo sapiens) (UniProt P42338)
[27] = target: Mitogen-activated protein kinase kinase kinase 2 (Homo sapiens) (UniProt Q9Y2U5)
[28] = target: Serine/threonine-protein kinase D1 (Homo sapiens) (UniProt Q15139)
[29] = target: Dual specificity mitogen-activated protein kinase kinase 6 (Homo sapiens) (UniProt P52564)
[30] = target: Serine/threonine-protein kinase N1 (Homo sapiens) (UniProt Q16512)
[31] = target: Dual specificity mitogen-activated protein kinase kinase 4 (Homo sapiens) (UniProt P45985)
Dual specificity mitogen-activated protein kinase kinase 4 (Homo sapiens), sequence (P45985 whole entry, canonical isoform): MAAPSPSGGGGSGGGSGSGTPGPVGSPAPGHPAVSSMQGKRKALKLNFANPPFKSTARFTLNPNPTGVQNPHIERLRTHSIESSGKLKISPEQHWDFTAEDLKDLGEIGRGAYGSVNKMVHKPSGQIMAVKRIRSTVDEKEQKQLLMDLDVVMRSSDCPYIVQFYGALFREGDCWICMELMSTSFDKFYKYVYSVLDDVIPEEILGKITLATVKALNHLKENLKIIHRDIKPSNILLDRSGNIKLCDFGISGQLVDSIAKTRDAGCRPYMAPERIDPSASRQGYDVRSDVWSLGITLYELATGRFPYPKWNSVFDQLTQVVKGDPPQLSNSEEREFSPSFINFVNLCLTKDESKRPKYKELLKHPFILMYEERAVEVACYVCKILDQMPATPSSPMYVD

[32] = test system: Phosphatidylinositol 4,5-bisphosphate 3-kinase catalytic subunit alpha isoform (Homo sapiens), P42336 [I800L]
[33] = target: Serine/threonine-protein kinase DCLK2 (Homo sapiens) (UniProt Q8N568)
Serine/threonine-protein kinase DCLK2 (Homo sapiens), sequence (Q8N568 whole entry): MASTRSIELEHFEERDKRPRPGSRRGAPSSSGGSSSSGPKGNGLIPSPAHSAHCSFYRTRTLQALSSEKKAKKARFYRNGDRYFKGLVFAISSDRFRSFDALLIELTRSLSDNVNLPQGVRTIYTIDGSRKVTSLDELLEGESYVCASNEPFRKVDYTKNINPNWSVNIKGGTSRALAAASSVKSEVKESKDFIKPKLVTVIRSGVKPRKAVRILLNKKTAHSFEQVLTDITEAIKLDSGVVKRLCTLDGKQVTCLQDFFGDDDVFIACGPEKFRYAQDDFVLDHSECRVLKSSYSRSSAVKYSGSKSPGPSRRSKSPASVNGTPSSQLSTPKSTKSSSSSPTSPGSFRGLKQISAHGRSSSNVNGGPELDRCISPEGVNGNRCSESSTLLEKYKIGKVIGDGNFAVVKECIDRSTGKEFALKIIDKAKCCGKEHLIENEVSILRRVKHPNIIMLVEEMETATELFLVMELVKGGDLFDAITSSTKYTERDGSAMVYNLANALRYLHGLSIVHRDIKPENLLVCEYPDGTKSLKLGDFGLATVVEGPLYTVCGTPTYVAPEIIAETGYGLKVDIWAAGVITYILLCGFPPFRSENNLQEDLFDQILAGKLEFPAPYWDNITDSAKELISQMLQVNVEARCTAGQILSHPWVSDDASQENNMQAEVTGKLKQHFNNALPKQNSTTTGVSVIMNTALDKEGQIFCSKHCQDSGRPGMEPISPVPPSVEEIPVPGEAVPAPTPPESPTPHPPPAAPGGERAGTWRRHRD

[34] = target: Serine/threonine-protein kinase DCLK1 (Homo sapiens) (UniProt O15075)
[35] = target: Activin receptor type-1B (Homo sapiens) (UniProt P36896)
[36] = target: Myosin light chain kinase 2, skeletal/cardiac muscle (Homo sapiens) (UniProt Q9H1R3)
[37] = target: Dual specificity tyrosine-phosphorylation-regulated kinase 1B (Homo sapiens) (UniProt Q9Y463)
[38] = test system: Epidermal growth factor receptor (Homo sapiens), P00533 [L861Q]
[39] = test system: Epidermal growth factor receptor (Homo sapiens), P00533 [UNDEFINED MUTATION]; remark: listed apart in the source
[40] = target: Serine/threonine-protein kinase PAK 6 (Homo sapiens) (UniProt Q9NQU5)
[41] = test system: Epidermal growth factor receptor (Homo sapiens), P00533 [L858R]
[42] = target: Serine/threonine-protein kinase MRCK gamma (Homo sapiens) (UniProt Q6DT37)
[43] = target: 5-hydroxytryptamine receptor 6 (Homo sapiens) (UniProt P50406); details: Compound concentration 10.0 uM
[44] = target: Cyclin-dependent kinase 9 (Homo sapiens) (UniProt P50750)
[45] = target: Serine/threonine-protein kinase Chk1 (Homo sapiens) (UniProt O14757)
[46] = Compound concentration 100.0 nM
[47] = Compound concentration 1000.0 nM

Maternal embryonic leucine zipper kinase (Homo sapiens), sequence (Q14680 whole entry, looked up): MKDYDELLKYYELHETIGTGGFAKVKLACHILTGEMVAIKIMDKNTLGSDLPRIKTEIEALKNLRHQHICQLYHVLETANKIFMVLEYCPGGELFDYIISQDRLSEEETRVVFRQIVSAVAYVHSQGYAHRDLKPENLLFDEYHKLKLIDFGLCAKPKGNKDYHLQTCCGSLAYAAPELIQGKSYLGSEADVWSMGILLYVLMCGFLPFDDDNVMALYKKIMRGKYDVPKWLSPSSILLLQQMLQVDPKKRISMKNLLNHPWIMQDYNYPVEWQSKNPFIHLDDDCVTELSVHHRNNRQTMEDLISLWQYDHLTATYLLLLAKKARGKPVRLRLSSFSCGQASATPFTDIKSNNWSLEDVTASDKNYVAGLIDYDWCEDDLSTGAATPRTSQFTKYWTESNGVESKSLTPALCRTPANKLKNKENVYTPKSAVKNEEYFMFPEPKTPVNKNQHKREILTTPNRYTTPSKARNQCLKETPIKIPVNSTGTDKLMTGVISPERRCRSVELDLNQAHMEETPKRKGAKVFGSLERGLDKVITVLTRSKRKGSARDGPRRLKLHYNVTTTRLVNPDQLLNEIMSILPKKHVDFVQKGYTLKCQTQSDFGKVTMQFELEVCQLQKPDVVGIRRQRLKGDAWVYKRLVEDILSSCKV

C[C@H](c1ccnc(Nc2nc3ccc(-c4cc(N(C)C)ncn4)cc3[nH]2)c1)N1CCN(C(=O)CC(F)(F)F)CC1 [BAY-985]
residual activity [1, 46]: 100%
residual activity [2, 46]: 100%
inhibition [3]: 13.6%
residual activity [4, 46]: 96%
residual activity [5, 46]: 97%
residual activity [6, 46]: 100%
residual activity [7, 46]: 70%
residual activity [8, 46]: 95%
residual activity [9, 46]: 100%
residual activity [10, 46]: 82%
residual activity [11, 46]: 100%
residual activity [12, 46]: 100%
residual activity [13, 46]: 100%
inhibition [14]: 11.4%
residual activity [15, 46]: 84%
residual activity [16, 46]: 100%
residual activity [17, 46]: 100%
residual activity [18, 46]: 98%
residual activity [19, 46]: 91%
residual activity [20, 46]: 100%
residual activity [21, 46]: 100%
residual activity [22, 46]: 86%
residual activity [23, 46]: 97%
residual activity [24, 46]: 74%
residual activity [25, 46]: 100%
residual activity [26, 46]: 100%
residual activity [27, 46]: 100%
residual activity [28, 46]: 100%
residual activity [29, 46]: 96%
residual activity [30, 46]: 100%
residual activity [31, 46]: 100%
residual activity [32, 46]: 100%
residual activity [33, 46]: 85%
residual activity [34, 46]: 96%
residual activity [35, 46]: 94%
residual activity [36, 46]: 92%
residual activity [37, 46]: 84%
residual activity [38, 46]: 76%
residual activity [39, 46]: 89%
residual activity [40, 46]: 100%
residual activity [41, 46]: 95%
residual activity [42, 46]: 79%
inhibition [43]: -4.38%
residual activity [44, 46]: 100%
residual activity [45, 46]: 87%

CN(C)c1ncnc(-c2ccc3nc(Nc4cc(CN5CCN(C(=O)CC(F)(F)F)CC5)ccn4)[nH]c3c2)c1Cl [BAY-440]
residual activity [1, 47]: 79%
residual activity [2, 47]: 95%
inhibition [3]: 29.3%
residual activity [4, 47]: 76%
residual activity [5, 47]: 87%
residual activity [6, 47]: 100%
residual activity [7, 47]: 90%
residual activity [8, 47]: 74%
residual activity [9, 47]: 89%
residual activity [10, 47]: 98%
residual activity [11, 47]: 71%
residual activity [12, 47]: 88%
residual activity [13, 47]: 100%
inhibition [14]: 0.02%
residual activity [15, 47]: 100%
residual activity [16, 47]: 81%
residual activity [17, 47]: 87%
residual activity [18, 47]: 100%
residual activity [19, 47]: 79%
residual activity [20, 47]: 100%
residual activity [21, 47]: 96%
residual activity [22, 47]: 88%
residual activity [23, 47]: 94%
residual activity [24, 47]: 62%
residual activity [25, 47]: 78%
residual activity [26, 47]: 82%
residual activity [27, 47]: 78%
residual activity [28, 47]: 100%
residual activity [29, 47]: 92%
residual activity [30, 47]: 100%
residual activity [31, 47]: 92%
residual activity [32, 47]: 35%
residual activity [33, 47]: 100%
residual activity [34, 47]: 92%
residual activity [35, 47]: 91%
residual activity [36, 47]: 100%
residual activity [37, 47]: 100%
residual activity [38, 47]: 96%
residual activity [39, 47]: 100%
residual activity [40, 47]: 100%
residual activity [41, 47]: 100%
residual activity [42, 47]: 100%
inhibition [43]: 12.4%
residual activity [44, 47]: 100%
residual activity [45, 47]: 97%
